Results published in US12611380B2, “Solution and method for reducing the virulence of viruses, bacteria, yeasts, or fungus” (priority 2020, dated 2026).
≈ marks a conversion by molar mass, not a printed value. Where “and” joins values, the source holds several entries; their conditions need not be identical. Equal values may be shown once. Starred links: 1 amine or outer side, 2 acyl side, 3 side chain; linkers in the order of their positions; H or OH if unused. Positions of bridges follow the written chain, without caps; N, C: chain ends. Non-standard residues stand in square brackets, D forms with d. Residues, ends and D or L forms follow the SMILES beside them. *: point of attachment. hTyr(3S-OH,4S-OH,3'-OSO3H) = N[C@H](C(=O)O)[C@H](O)[C@@H](O)c1ccc(O)c(OS(=O)(=O)O)c1; Orn(4R-OH,5R-OH) = O=C([C@H](C[C@@H](O)[C@@H](O)N[*:3])N[*:1])[*:2]; Pro(3S-OH,4S-Me) = C[C@H]1CN[C@H](C(=O)O)[C@H]1O; X1 = CCCCCOc1ccc(-c2cc(-c3ccc(C(=O)*)cc3)no2)cc1; Gln(3R-OH) = NC(=O)C[C@@H](O)[C@H](N)C(=O)O; Hyp = O=C(O)[C@@H]1C[C@@H](O)CN1

Columns and labels:
[1] = assay type: physicochemical; conditions: for Viscosity: 6% of the named additive added to 8% ILCS (potassium) hydro-gel; for reduction in viscosity: 6% additive in ILCS gel, 140° F. 1-3 days then 108° F. 2-4 days
Experimental: A simple viscometer, Digital Viscosity Meter (NDJ-8S, Shaoxing Worner Lab Equipment Co., Ltd., China) was used, recognizing the limitations of measuring a solid gelatin hydro-gel. […] The ILCS was initially incubated at 120° F. overnight, equilibrated at […]. prior to viscometry.
ILCS was made from potassium hydroxide (Spectrum Chemical, Louisville, KY), isomerized linoleic acid (Stepan, New Jersey), and USP WFI water (Ceela Naturals), to a final concentration 8% or 333 mM Potassium Linoleate (isomerized).
Many of the amino acids tested were purchased from Ajinomoto (NJ, USA), while tryptophan, proline, and phenylalanine were obtained from Purebulk (Oregon, USA). The Quorum Sensing Agent phenylethanol was purchased from Sigma Aldrich (GA, USA).
The gel and compound were incubated at 140° F. for 1-3 days followed by incubation 108° F. for 2-4 days.

[2] = test system: Candida auris, (AR-0381); conditions: isolate AR Isolate Bank #0381; cited from earlier work
[3] = test system: Vero 76 cells
[4] = test system: SARS-COV-2; assay: Virucidal assay, 2 minutes contact, end-point titer (CCID50) on Vero 76 cells; conditions: Ethanol 63%, 2 minutes
[5] = test system: microbial growth; assay: Reduction in microbial growth; assay type: cell-based; conditions: potassium hexadiene at pH 9
[6] = test system: Candida auris (AR-0381)
Experimental: (§1) We used EPA protocol MB-35-00 for testing disinfectants against C. auris (US Environmental Protection Agency. 2017, 2020) and C. albicans ATCC 10231, a yeast common in package spoilage of food and cosmetics.
(§2) We tested 5 batches produced with difference sources of isomerized linoleic acid (Test Substances 1-5).
(§3) The EPA test protocol for testing hard surface disinfection of C. auris (AR0381) with antifungal resistance includes an overnight culture of C. auris (AR.0381) shaken at 200 rpm at 30° C. From this culture, 8 mL was harvested by centrifugation, re-suspended in 2-3 mL phosphate-buffered saline (PBS), and mixed with a 3-part soil load including bovine serum albumin (BSA), yeast extract, and mucin. Metal carriers (10 mm) were inoculated (10 μL culture+soil load) and dried in a desiccator under vacuum (˜70 min). The disk surface was coated with the test substance at 0.42 M (50 μL) for up to 10 min. Following incubation, the carriers were transferred to 10 mL neutralization solution (Sabouraud Dextrose Broth [SDB], a common yeast-mold growth media) for subsequent harvesting on membrane filters. The filtered membranes were transferred to Sabouraud Dextrose Emmons Agar (SDEA) plates to culture for 120 hours at 31° C. Controls consisted of PBS (50 μL) applied to inoculated metal disk carriers, subsequently transferred to 10 mL neutralization solution (SDB), diluted serially in PBS, and plated directly to SDEA plates, See FIG. 2.
(§4) We prepared and qualified these per EPA protocol (US Environmental Protection Agency, 2017). • Soil Stocks: We prepared soil stocks with yeast extract powder (Ref RM027) purchased from Himedia, BSA (A2153) purchased from Sigma Life Science, and gastric mucin (cat #HY-B2196/CS-7626) purchased from Mod Chem Express per SOP MB-35-00 (US Environmental Protection Agency, 2017). • Cell Harvesting: We removed cells from the growth culture media using a Micro-Centrifuge obtained from Changzhou Jintan Sanhe Instrument Co., LTD. (Model TGI6-W) at 10,000×g for 10 min in screw-top-cap vials purchased from Heathrow Scientific (Item HS 100600). The optical density of the inoculate was defined at 15-19 OD600 in PBS with the Ultrospec 10 Cell Density Meter from BioChrom (Holliston, MA, USA) prior to dilution in the soil load. Samples were diluted 1:10 in PBS to obtain absorbance readings between 1.5 and 1.9. • Membrane Filtration: Treated yeasts were collected using a combination of the Rocker (Cat #200300-01) and 47 mm PES membranes with a 0.45 micron pore size obtained from Sterlitech (Catalog #PE54547100).

[7] = test system: Candida albicans (ATCC 10231); assay: EPA protocol MB-35-00 hard surface carrier disinfection test
Experimental: as §1, §2, §3, §4

[8] = second experiment, Tables 8 and 9
[9] = second experiment, positive control, Table 5
[10] = all testing runs (Tables 2 and 3)

Molecule | Viscosity [1] [milliPoise] | MIC [2] [µg/mL] | other results
C[C@H](N)C(=O)O [Alanine] | 40700 |  | 
C[C@@H]1[C@H](O)[C@@H](C)/C=C/C=C/C=C/C=C/C=C/C=C/C=C/[C@H](O[C@@H]2O[C@H](C)[C@@H](O)[C@H](N)[C@@H]2O)C[C@@H]2O[C@](O)(C[C@@H](O)C[C@@H](O)[C@H](O)CC[C@@H](O)C[C@@H](O)CC(=O)O[C@H]1C)C[C@H](O)[C@H]2C(=O)O [Amphotericin 81] |  | 0.38 (≈ 0.411 µM) | 
N=C(N)NCCC[C@H](N)C(=O)O [Arginine] | 25600 |  | 
N[C@@H](CC(=O)O)C(=O)O [Aspartic acid] | 25100 |  | 
CC[C@H](C)C[C@H](C)CCCCCCCCC(=O)N[C@H]1C[C@@H](O)[C@@H](NCCN)NC(=O)[C@@H]2[C@@H](O)CCN2C(=O)[C@H]([C@H](O)CCN)NC(=O)[C@H]([C@H](O)[C@@H](O)c2ccc(O)cc2)NC(=O)[C@@H]2C[C@@H](O)CN2C(=O)[C@H]([C@@H](C)O)NC1=O [Caspofungin] |  | 0.13 (≈ 0.119 µM) | 
Cl.N[C@@H](CS)C(=O)O [Cysteine-HCl] | 28400 |  | 
CC(C)(CO)C(O)C(=O)NCCCO (stereo not drawn) [D L Panthenol] | 28650 |  | 
CC(C)(CO)[C@@H](O)C(=O)NCCCO [D Panthenol] | 31600 |  | 
CCO [Ethanol, reference compound] |  |  | toxicity to cells in titer plates [3]: toxic to cells; LRV (log reduction value) ([4]; Table 7): >1.8; Virus Titer ([4]; Table 7): <1.7 Log10 CCID50of virus per 0.1 mL; LRV (log reduction value) ([4]; positive control, Table 4): >1.8; Virus Titer ([4]; positive control, Table 4): <1.7 Log10 CCID50 of virus per 0.1 mL; LRV (log reduction value) [4, 8]: >2.0; Virus Titer [4, 8]: <1.7 Log10 CCID50of virus per 0.1 mL; LRV (log reduction value) [4, 9]: >2.0; Virus Titer [4, 9]: <1.7 Log10 CCID50 of virus per 0.1 mL
OC(Cn1cncn1)(Cn1cncn1)c1ccc(F)cc1F [Fluconazolc, fluconazole] |  | 4.00 (≈ 13.1 µM) | 
Nc1[nH]c(=O)ncc1F [Flucytosine] |  | 2.00 (≈ 15.5 µM) | 
N[C@@H](Cc1c[nH]cn1)C(=O)O [Histidine base] | 28050 |  | 
CC[C@H](C)[C@H](N)C(=O)O [Iso-Leucine] | 29900 |  | 
CCC(C)n1ncn(-c2ccc(N3CCN(c4ccc(OCC5COC(Cn6cncn6)(c6ccc(Cl)cc6Cl)O5)cc4)CC3)cc2)c1=O (stereo not drawn) [Iuaconazole, itraconazole] |  | 0.13 (≈ 0.184 µM) | 
NCCCC[C@H](N)C(=O)O [Lysine base] | 26900 |  | 
Cl.NCCCC[C@H](N)C(=O)O [Lysine-hcl] | 30700 |  | 
CSCC[C@H](N)C(=O)O [Methionine] | 32350 |  | 
CCCCCOc1ccc(-c2cc(-c3ccc(C(=O)N[C@H]4C[C@@H](O)[C@@H](O)NC(=O)[C@@H]5[C@@H](O)[C@@H](C)CN5C(=O)[C@H]([C@H](O)CC(N)=O)NC(=O)[C@H]([C@H](O)[C@@H](O)c5ccc(O)c(OS(=O)(=O)O)c5)NC(=O)[C@@H]5C[C@@H](O)CN5C(=O)[C@H]([C@@H](C)O)NC4=O)cc3)no2)cc1 [Micafungin] (X1-[Orn(4R-OH,5R-OH)]T[Hyp][hTyr(3S-OH,4S-OH,3'-OSO3H)][Gln(3R-OH)][Pro(3S-OH,4S-Me)]; lactam 1-C) |  | 0.13 (≈ 0.102 µM) | 
NC(=O)c1cccnc1 [Niacinamide] | 33800 |  | 
N[C@@H](Cc1ccccc1)C(=O)O [Phenylalanine] | 130 |  | reduction in viscosity [1]: two log-reduction in viscosity
CC[C@@H]([C@H](C)O)n1ncn(-c2ccc(N3CCN(c4ccc(OC[C@@H]5CO[C@@](Cn6cncn6)(c6ccc(F)cc6F)C5)cc4)CC3)cc2)c1=O [Posaconazolc, posaconazole] |  | 0.06 (≈ 0.0856 µM) | 
C/C=C/C=C/C(=O)[O-].[K+] [Potassium Sorbate, Potassium sorbate] |  |  | reduction in microbial growth [5]: little reduction in microbial growth; Test Disks Density (log) ([6]; Exposure 2 min., yeast recovered from treated carriers): 5.0 log and 4.9 log; kill rates [6, 10]: less than one log; Test Disks Density (log) ([7]; Exposure 1 min., yeast recovered from treated carriers): 4.8 log and 4.9 log; kill rates [7, 10]: less than one log
N[C@@H](CO)C(=O)O [Serine] | 22300 |  | 
C[C@@H](O)[C@H](N)C(=O)O [Threonine] | 30650 |  | 
N[C@@H](Cc1c[nH]c2ccccc12)C(=O)O [Tryptophan] | 21 |  | reduction in viscosity [1]: two log-reduction in viscosity
CC(C)[C@H](N)C(=O)O [Valine] | 31850 |  | 
C[C@@H](c1ncncc1F)[C@](O)(Cn1cncn1)c1ccc(F)cc1F [Voriconazole] |  | 0.03 (≈ 0.0859 µM) | 
Anidulaftrngin |  | 0.25 | 
